Patent US6194387A, “6-O-aklyl erythromycin B oxime” (Abbott Laboratories, priority 1999, dated 2001)
Like-named read-outs stand apart in the source and are kept apart here.

Experiments:
[1] = tested on: ACINETOBACTER CALCOACETICUS; experiment: in vitro antibacterial activity, agar dilution MIC; assay type: cell-based; conditions: Table 2, CMX 669, read-out: MIC
Protocol: (§1) 6-O-Methyl-9-oxime erythromycin B prepared in accordance with Examples 1 and 2 was assayed in vitro for anitbacterial activity as follows: Twelve petri dishes containing successive aqueous dilutions of the test compound mixed with 10 mL of sterilized Brain Heart Infusion (BHI) agar (Difco 0418-01-5) were prepared. Each plate was inoculated with 1:100 (or 1:10 for slow-growing strains, such as Micrococcus and Streptococcus) dilutions of up to 32 different micoorganisims, using a Steers replicatore block. The inoculated plates were incubated at 35-37° C. for 20 to 24 hours. In addition, a control plate, using BHI agar containing no test compound, was prepared and incubated at the beginning and end of each test.
(§2) An additional plate containing a compound having known susceptibility patterns for the organisms being tested and belonging to the same antibiotic class as the test compound was also prepared and incubated as further control, as well as to provide test-to-test comparability. Erythromycin A was used for this purpose.
(§3) After incubation, each disk was read. The minimum inhibitory concentration (MIC) was defined as the lowest concentration of drug yielding no growth, a slight haze, or sparsely isolated colonies on the inoculum spot as compared to the growth control.

EN[…] [2] = experiment: in vitro antibacterial activity, agar dilution MIC; assay type: cell-based; conditions: Enterococcus faecium, ATCC8043
Protocol: as §1, §2, §3

HAEMOPHILUS INFLUENZAE = experiment: in vitro antibacterial activity, agar dilution MIC; assay type: cell-based
Protocol: as §1, §2, §3

KLEBSIELLA PNEUMONIAE = experiment: in vitro antibacterial activity, agar dilution MIC; assay type: cell-based; conditions: ATCC8045, Table 2, ATCC 8045, read-out: MIC
Protocol: as §1, §2, §3

MYCOBACTERIIUM SMEGMATIS = experiment: in vitro antibacterial activity, agar dilution MIC; assay type: cell-based; conditions: Table 2; ATCC 114; read-out: MIC
Protocol: as §1, §2, §3

M[…] [3] = experiment: in vitro antibacterial activity, agar dilution MIC; assay type: cell-based; conditions: Micrococcus luteus, ATCC4698
Protocol: as §1, §2, §3

NOCARDIA ASTEROIDES = experiment: in vitro antibacterial activity, agar dilution MIC; assay type: cell-based; conditions: ATCC9970, Table 2, ATCC 9970, read-out: MIC
Protocol: as §1, §2, §3

PROVIDENCIA STUART II = experiment: in vitro antibacterial activity, agar dilution MIC; assay type: cell-based; conditions: Table 2, CMX 640, read-out: MIC
Protocol: as §1, §2, §3

PSEUDOMONAS AERUGINOSA = experiment: in vitro antibacterial activity, agar dilution MIC; assay type: cell-based
Protocol: as §1, §2, §3

PSEUDOMONAS CEPACIA = experiment: in vitro antibacterial activity, agar dilution MIC; assay type: cell-based; conditions: Burkholderia cepacia; Table 2; 2961; read-out: MIC
Protocol: as §1, §2, §3

STAPHYLOCOCCUS AUREUS = experiment: in vitro antibacterial activity, agar dilution MIC; assay type: cell-based
Protocol: as §1, §2, §3

STAPHYLOCOCCUS BOVIS = experiment: in vitro antibacterial activity, agar dilution MIC; assay type: cell-based; conditions: Table 2, A-5169, read-out: MIC
Protocol: as §1, §2, §3

[4] = tested on: STAPHYLOCOCCUS EPIDERMIDIS; experiment: in vitro antibacterial activity, agar dilution MIC; assay type: cell-based; conditions: Table 2, 3519, read-out: MIC
Protocol: as §1, §2, §3

[5] = tested on: STAPHYLOCOCCUS PNEUMONIAE; experiment: in vitro antibacterial activity, agar dilution MIC; assay type: cell-based
Protocol: as §1, §2, §3

STAPHYLOCOCCUS PYOGENES = experiment: in vitro antibacterial activity, agar dilution MIC; assay type: cell-based
Protocol: as §1, §2, §3

M[…] [6] = experiment: in vitro antibacterial activity, agar dilution MIC; assay type: cell-based, Micrococcus pyogenes; conditions: Staphylococcus aureus, ATCC9341
Protocol: as §1, §2, §3

ESCHERICHIA COLI = experiment: microbe, parasite or virus in culture; assay type: cell-based
Protocol: as §1, §2, §3

EN[…] [7] = experiment: in vitro antibacterial activity, agar dilution MIC; assay type: cell-based, Enterobacter aerogenes; conditions: Klebsiella aerogenes, ATCC13048
Protocol: as §1, §2, §3

CANDIDA ALBICANS = experiment: in vitro antimicrobial activity, agar dilution MIC; assay type: cell-based; conditions: Table 2, CCH 442, read-out: MIC
Protocol: as §1, §2, §3

micoorganisims = experiment: in vitro antibacterial activity, overall conclusion; assay type: cell-based
Protocol: as §1, §2, §3

CC[C@H]1OC(=O)[C@H](C)[C@@H](O[C@H]2C[C@@](C)(OC)[C@@H](O)[C@H](C)O2)[C@H](C)[C@@H](O[C@@H]2O[C@H](C)C[C@H](N(C)C)[C@H]2O)[C@](C)(OC)C[C@@H](C)C(=NO)[C@H](C)[C@@H](O)[C@H]1C [6-O-Methyl-9-oxime erythromycin B]
0.39 µg/mL: MIC (MYCOBACTERIIUM SMEGMATIS) | MIC (STAPHYLOCOCCUS AUREUS; ATCC6538P, Table 2, ATCC 6538P, read-out: MIC) | MIC (STAPHYLOCOCCUS AUREUS; Table 2, NCTC10649M, read-out: MIC) | MIC [4]
> 128 µg/mL: MIC ([5]; Table 3, 5728, read-out: MIC) | MIC ([5]; Table 3, 5737, read-out: MIC) | MIC ([5]; Table 3, 5979, read-out: MIC) | MIC (STAPHYLOCOCCUS PYOGENES; Table 3, 930, read-out: MIC)
8 µg/mL: MIC (HAEMOPHILUS INFLUENZAE; ATCC43095, Table 3, ATCC 43095, read-out: MIC) | MIC (HAEMOPHILUS INFLUENZAE; Table 3, CMX 632A, read-out: MIC)
6.2 µg/mL: MIC (STAPHYLOCOCCUS AUREUS; Table 2, A5177, read-out: MIC) | MIC (STAPHYLOCOCCUS PYOGENES; Table 2, PIU 2548, read-out: MIC)
0.05 µg/mL: MIC (STAPHYLOCOCCUS BOVIS) | MIC (M[…] [6])
16 µg/mL: MIC (HAEMOPHILUS INFLUENZAE; ATCC10211, Table 3, ATCC 10211, read-out: MIC) | MIC (HAEMOPHILUS INFLUENZAE; Table 3, CMX 503B, read-out: MIC) | MIC (HAEMOPHILUS INFLUENZAE; Table 3, CMX 504, read-out: MIC) | MIC (HAEMOPHILUS INFLUENZAE; Table 3, CMX 519A, read-out: MIC) | MIC (HAEMOPHILUS INFLUENZAE; Table 3, CMX 566A, read-out: MIC) | MIC (HAEMOPHILUS INFLUENZAE; Table 3, CMX 588A, read-out: MIC) | MIC (HAEMOPHILUS INFLUENZAE; Table 3, CMX 747C, read-out: MIC) | MIC (HAEMOPHILUS INFLUENZAE; Table 3, GYR 1435, read-out: MIC) | MIC (HAEMOPHILUS INFLUENZAE; Table 3, SOL AMP R, read-out: MIC) | MIC (HAEMOPHILUS INFLUENZAE; Table 3, SPK AMP R, read-out: MIC) | MIC ([5]; Table 3, 5649, read-out: MIC) | MIC ([5]; Table 3, 5654, read-out: MIC) | MIC (STAPHYLOCOCCUS PYOGENES; Table 3, PIU 2548, read-out: MIC)
> 100 µg/mL: MIC (KLEBSIELLA PNEUMONIAE) | MIC (PROVIDENCIA STUART II) | MIC (PSEUDOMONAS AERUGINOSA; Table 2, 5007, read-out: MIC) | MIC (PSEUDOMONAS AERUGINOSA; Table 2, DPHD-2862, read-out: MIC) | MIC (PSEUDOMONAS AERUGINOSA; Table 2, DPHD-5263, read-out: MIC) | MIC (PSEUDOMONAS CEPACIA) | MIC (STAPHYLOCOCCUS AUREUS; Table 2, A-5278, read-out: MIC) | MIC (STAPHYLOCOCCUS PYOGENES; Table 2, 930) | MIC (ESCHERICHIA COLI; Table 2, DC-2) | MIC (EN[…] [7]) | MIC (CANDIDA ALBICANS)
0.1 µg/mL: MIC (EN[…] [2]) | MIC (NOCARDIA ASTEROIDES)
50 µg/mL: MIC [1] | MIC (ESCHERICHIA COLI; Table 2, JUHL)
100 µg/mL: MIC (ESCHERICHIA COLI; Table 2, H560) | MIC (ESCHERICHIA COLI; Table 2, KNK 437)
1.56 µg/mL: MIC (PSEUDOMONAS AERUGINOSA; Table 2, K799/61, read-out: MIC)
effective antibacterial agent: antibacterial activity (conclusion from Tables 2 and 3) (micoorganisims)
0.03 µg/mL: MIC ([5]; Table 3, GYR 1171, read-out: MIC) | MIC (STAPHYLOCOCCUS PYOGENES; Table 3, EES61, read-out: MIC)
0.78 µg/mL: MIC (M[…] [3]) | MIC (STAPHYLOCOCCUS AUREUS; Table 2, CMX 553, read-out: MIC) | MIC (STAPHYLOCOCCUS AUREUS; Table 2, CMX 642A, read-out: MIC) | MIC (ESCHERICHIA COLI; Table 2, SS)
1 µg/mL: MIC (HAEMOPHILUS INFLUENZAE; Table 3, GYR 1177, read-out: MIC)
0.02 µg/mL: MIC (STAPHYLOCOCCUS PYOGENES; Table 2, EES61, read-out: MIC)
32 µg/mL: MIC (HAEMOPHILUS INFLUENZAE; ATCC19418, Table 3, ATCC 19418, read-out: MIC) | MIC (HAEMOPHILUS INFLUENZAE; Table 3, CMX 751, read-out: MIC)
